From PubChem BioAssay AID1918991 (Molecular Pharmacology Branch, DTP, NCI, 2023)
pIC50: −log10 of the molar value.

Test system: 186277-243-T-J2-PDC complex spheroid growth
Test: Anticancer human tumor 186277-243-T-J2-PDC patient-derived colon adenocarcinoma cell line growth inhibition [AhR]
Settings: for pIC50: curve of first compound; for viability, T/C: stronger effect = lower value
How it was run: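 Spheroids combined tumor cells with HUVEC endothelial cells and human MSCs as stroma. AhR antagonists were paired with standard or investigational drugs, each dosed in half-log steps down from near clinical Cmax, or from 10 microM where Cmax was unknown.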

[1] = second compound 0.1 µM, first compound 0.0316 µM
[2] = second compound 0.1 µM, first compound 0.1 µM
[3] = second compound 0.1 µM, first compound 0.316 µM
[4] = second compound 0.1 µM, first compound 1 µM
[5] = second compound 0.1 µM, first compound 3.16 µM
[6] = second compound 0.1 µM, first compound 10 µM
[7] = second compound 0.316 µM, first compound 0.0316 µM
[8] = second compound 0.316 µM, first compound 0.1 µM
[9] = second compound 0.316 µM, first compound 0.316 µM
[10] = second compound 0.316 µM, first compound 1 µM
[11] = second compound 0.316 µM, first compound 3.16 µM
[12] = second compound 0.316 µM, first compound 10 µM
[13] = second compound 1 µM, first compound 0.0316 µM
[14] = second compound 1 µM, first compound 0.1 µM
[15] = second compound 1 µM, first compound 0.316 µM
[16] = second compound 1 µM, first compound 1 µM
[17] = second compound 1 µM, first compound 3.16 µM
[18] = second compound 1 µM, first compound 10 µM
[19] = second compound 3.16 µM, first compound 0.0316 µM
[20] = second compound 3.16 µM, first compound 0.1 µM
[21] = second compound 3.16 µM, first compound 0.316 µM
[22] = second compound 3.16 µM, first compound 1 µM
[23] = second compound 3.16 µM, first compound 3.16 µM
[24] = second compound 3.16 µM, first compound 10 µM
[25] = second compound 10 µM, first compound 0.0316 µM
[26] = second compound 10 µM, first compound 0.1 µM
[27] = second compound 10 µM, first compound 0.316 µM
[28] = second compound 10 µM, first compound 1 µM
[29] = second compound 10 µM, first compound 3.16 µM
[30] = second compound 10 µM, first compound 10 µM
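Note: spheroids exposed to compounds for seven days before the viability read.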
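Throughout, for viability, T/C: luminescent signal used as a stand-in for viable cell amount; 100% = DMSO vehicle control wells.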

Nc1ccccc1NC(=O)c1ccc(CNC(=O)OCc2cccnc2)cc1 + Cc1cncc(-c2nc(NCCc3c[nH]c4ccccc34)c3ncn(C(C)C)c3n2)c1 gave a pIC50 (second compound 0.1 µM) of 5.50, a pIC50 (second compound 0.316 µM) of 5.51 and a pIC50 (second compound 1 µM) of 5.43. For the same compound, the pIC50 (second compound 3.16 µM) was 5.48, the pIC50 (second compound 10 µM) was > 7.50 and the viability, T/C [1] was 91.1%. It also gave a viability, T/C [2] of 94.1%, a viability, T/C [3] of 100% and a viability, T/C [4] of 96%. The viability, T/C [5] was 49.7%, the viability, T/C [6] was 8.44% and the viability, T/C [7] was 101%. It also gave a viability, T/C [8] of 105%, a viability, T/C [9] of 101% and a viability, T/C [10] of 93.5%. For the same compound, the viability, T/C [11] was 48.8%, the viability, T/C [12] was 7.07% and the viability, T/C [13] was 82%. The viability, T/C [14] was 114%, the viability, T/C [15] was 92.2% and the viability, T/C [16] was 111%. The viability, T/C [17] was 57.1%, the viability, T/C [18] was 8.57% and the viability, T/C [19] was 94.1%. The viability, T/C [20] was 97.7%, the viability, T/C [21] was 93.1% and the viability, T/C [22] was 86.1%. It also gave a viability, T/C [23] of 51.6%, a viability, T/C [24] of 8.37% and a viability, T/C [25] of 42.4%. For the same compound, the viability, T/C [26] was 36.9%, the viability, T/C [27] was 23.9% and the viability, T/C [28] was 10.1%. For the same compound, the viability, T/C [29] was 2.97% and the viability, T/C [30] was 0.95%.
With O=C(c1cc(Cc2n[nH]c(=O)c3ccccc23)ccc1F)N1CCN(C(=O)C2CC2)CC1 + Cc1cncc(-c2nc(NCCc3c[nH]c4ccccc34)c3ncn(C(C)C)c3n2)c1 the pIC50 (second compound 0.1 µM) was < 5.00, the pIC50 (second compound 0.316 µM) was < 5.00 and the pIC50 (second compound 1 µM) was < 5.00. For the same compound, the pIC50 (second compound 3.16 µM) was < 5.00, the pIC50 (second compound 10 µM) was > 7.50 and the viability, T/C [1] was 107%. It also gave a viability, T/C [2] of 110%, a viability, T/C [3] of 88.1% and a viability, T/C [4] of 110%. The viability, T/C [5] was 123%, the viability, T/C [6] was 123% and the viability, T/C [7] was 108%. It also gave a viability, T/C [8] of 103%, a viability, T/C [9] of 96.5% and a viability, T/C [10] of 110%. The viability, T/C [11] was 125%, the viability, T/C [12] was 130% and the viability, T/C [13] was 97.6%. For the same compound, the viability, T/C [14] was 96.5%, the viability, T/C [15] was 100% and the viability, T/C [16] was 115%. The viability, T/C [17] was 125%, the viability, T/C [18] was 134% and the viability, T/C [19] was 115%. The viability, T/C [20] was 110%, the viability, T/C [21] was 115% and the viability, T/C [22] was 116%. The viability, T/C [23] was 146%, the viability, T/C [24] was 130% and the viability, T/C [25] was 48.2%. For the same compound, the viability, T/C [26] was 44.3%, the viability, T/C [27] was 38.8% and the viability, T/C [28] was 41.5%. It also gave a viability, T/C [29] of 28.5% and a viability, T/C [30] of 21.5%.
